# Results published in EP0565593B1, “REDUCING PESTICIDAL INTERACTIONS IN CROPS” (priority 1990, dated 1992).
# Read-outs that look alike come from different tables or passages of the source.
# Legend:
# Velvetleaf (VELE) = assay: whole plant or invertebrate; type: in vivo, Abutilon theophrasti
# SJCA = assay: Greenhouse test Procedure IV: herbicide, biocide and antidote PPI, weed SJCA (Examples 53-55; Tables 52-54); type: in vivo
# From the text: The test in this example paralleled that in Example 51, except the procedure was according to Procedure IV above and the herbicides used were No. 1 (MON-12000); No. 21 (XRD-498) and, again, No. 18 (PURSUIT); the biocide was, again, MOCAP®. Observations were taken thirteen (13) days after PPI treatment with biocide and antidote.
# This test was identical to that in Example 52, except for use of a different biocide, DIAZINON (Biocide No. 5, a nematicide and soil insecticide).
# This test was also identical to that in the preceding two examples, except that the biocide was malathion (No. 7, an insecticide).
# This test was identical to the preceding ones, except the biocide was DPX-43898 (No. 6, active ingredient in FORTRESS® insecticide, a soil insecticide). Also, the observation time was fourteen (14) days after PPI initiation.
# Corn [1] = tested on: Corn
# Corn [2] = assay: Greenhouse test Procedure VI: biocide and antidote in furrow, herbicide PPI in cover layer (Examples 43-47, 59-61; Tables 42-46, 58-60); type: in vivo; conditions: Example 43; Antidotes 1, 7, 12, 33
# From the text: This procedure describes interaction among herbicide, biocide and antidote when the herbicide is incorporated in a soil cover layer and the biocide and the antidote are applied in a soil furrow containing crop seed before emergence of the crop. The soil and seeding depth were described in Procedure IV. A first container was designated as an untreated control, a second container was designated as a herbicide control, a third container was designated as a herbicide + biocide control and a fourth container as a herbicide + biocide + antidote test container. The biocide and antidote were formulated as granules. The biocide was applied to the soil furrows of the third and fourth containers at an application rate of 1.1 mg of active compound per cm of row. The antidote was applied to the soil furrow of the fourth container at an application rate of 0.37 mg of active compound per cm of row. A measured amount of the herbicide dispersed or dissolved in acetone was applied to a measured quantity of soil. The quantity of soil treated with the herbicide was thoroughly mixed to incorporate the herbicide. Samples of this soil were used to cover the seed beds of the second, third and fourth containers. For each test series, the seed bed of the first container was likewise covered by a soil layer not treated with herbicide and without biocide or antidote in the soil furrow.
# The containers were then placed on a bench in a greenhouse. Watering was by subirrigation plus overhead irrigation after the plants emerged. All treatments were run in duplicate. Plant response was observed according to Procedure IV. Variations in this procedure will be noted in the examples.
# In continuing tests to evaluate the variations of this invention, a series of tests were conducted to determine the efficacy of the above safeners in Examples 39-42 to alleviate corn injury induced by the interaction of various additional commercial sulfonylurea herbicides with COUNTER 15G insecticide. In this example, the tests were conducted according to Procedure VI above. In modifications of that procedure, herbicides were applied to soil samples as acetone/water suspensions, incorporated by shaking in a closed container, with subsamples used to cover furrow-treated 10.2 cm pots. Pots were subirrigated followed by overhead misting on days 6-10.
# This example was designed to test the safening effect of those above safeners used in this test series to relieve corn injury by negative synergism induced by interaction of COUNTER 15G and three imidazolinone herbicides, i.e., imazaquin and imazapyr (used in the POE tests in Example 41) and AC 263222 (a.i. in CADRE® herbicide). As differing from the tests in Example 41, this test was a PPI test according to Procedure VI described above. Observation of test results (Table 43) were taken thirteen 913) days after in-furrow PPI preparation.
# This example describes PPI tests to evaluate said test safeners in this series with analogs of the sulfonamide herbicides tested under POE herbicide application procedures described in Example 42. In these tests, conducted according to Procedure VI described above, Herbicide Nos. 20, 22 and 24 were applied PPI with the insecticide and antidote. Observations of tests results were made thirteen days after PPI initiation.
# An additional three (3) sulfonamide herbicide analogs were tested simultaneously and under the same conditions described in Example 45.
# Another test of this invention involved the safening effects of the safeners in this series against negative synergy inducted by the interaction of COUNTER 15G and a sulfonylurea herbicide (OUST®), Herbicide No. 13, and PURSUIT, an imidazolinone herbicide, No. 6. Test conditions were the same as those in Examples 43-46. Other procedures for applying herbicidal formulations are as described in Example 42. […]
# Corn [3] = assay: Greenhouse test Procedure II: herbicide, insecticide and antidote incorporated in cover layer (Example 4; Table 4); type: in vivo; conditions: 3 weeks
# Description: (§1) Containers were filled and compacted with a fumigated silt loam top soil to a depth of about 1.3 cm from the top of the container. A first container was designated as an untreated control, a second container was designated as a herbicide control, and a third container was designated as a herbicide + antidote test container. Each of the containers was seeded with a crop species. A measured amount of herbicide dispersed or dissolved in acetone was applied to a measured quantity of soil. To this same quantity of soil treated with herbicide, there was added a measured amount of antidote dispersed or dissolved in acetone. The quantity of soil treated with the herbicide and antidote was thoroughly mixed to incorporate the herbicide and antidote in the soil uniformly. The seed bed in the third container of soil was covered with the soil treated with the herbicide and antidote and the container was leveled. For each test series, the seed beds of the first and second containers were likewise covered by soil layers. the cover layer of the first container was not treated with herbicide or antidote.
# (§2) This procedure is the same as Procedure I, but modified in the manner that after incorporation of the chemicals (herbicide, antidote and insecticide), the containers with the covered seedbed were treated with an initial overhead irrigation equivalent to 0.6 cm rainfall, then subsequently sub-irrigated as required on greenhouse benches.
# (§3) The procedure used in this test was Procedure No. 2 above. Formulations of herbicide, insecticide and antidote were applied via track sprayer sequentially onto cover layers, incorporated into the soil which was spread over seedbeds, then irrigated from above with 0.6 cm water. Observations were made three (3) weeks after treatment.
# VELE (velvetleaf) = assay: Greenhouse test Procedure II (Example 4; Table 4); type: in vivo, Abutilon theophrasti; conditions: 3 weeks
# Description: as §1, §2, §3
# [4] = Table 53, Biocide No. 7 alone 8.96 kg/Ha PPI, observed 13 days after treatment
# [5] = Insecticide 2 3.36 + Herbicide 6 0.07 kg/Ha
# [6] = Insecticide 2 3.36 + Herbicide 6 0.14 kg/Ha
# [7] = Table 54, Biocide No. 6 alone 8.96 kg/Ha PPI, observed 14 days after PPI initiation
# [8] = Table 52, Biocide No. 5 alone 8.96 kg/Ha PPI, observed 13 days after treatment
# [9] = Insecticide 2 3.36 + Herbicide 5 0.07 kg/Ha
# [10] = Insecticide 2 3.36 + Herbicide 5 0.14 kg/Ha
# [11] = Insecticide 2 3.36 + Herbicide 4 0.07 kg/Ha
# [12] = Insecticide 2 3.36 + Herbicide 4 0.14 kg/Ha
compound,measurement,setting,value
"CCOC(=O)CC(SP(=S)(OC)OC)C(=O)OCC (stereo not shown) [Biocide No. 7, O,O-Dimethyl phosphorothioate of diethyl mercaptosuccinate, reference compound]",% Inhibition VELE,Velvetleaf (VELE); [4],0%
same,% Inhibition SJCA,SJCA; [4],0%
same,% Inhibition Corn,Corn [1]; [4],0%
"COC(=O)c1ccccc1CS(=O)(=O)NC(=O)Nc1nc(OC)cc(OC)n1 [Herbicide No. 14, Benzoic acid, 2-[[[[[(4,6-dimethoxy-2-pyrimidinyl)amino]carbonyl]amino]sulfonyl]methyl]-, methyl ester, reference compound]",safening of herbicide/COUNTER 15G corn injury by the antidotes,Corn [2],effectively reduced corn injury
"CCc1cnc(C2=NC(C)(C(C)C)C(=O)N2)c(C(=O)O)c1 (stereo not shown) [Herbicide No. 6, 3-Pyridinecarboxylic acid, 2-[4,5-dihydro-4-methyl-4-(1-methylethyl)-5-oxo-1H-imidazol-2-yl]5-ethyl]",% Injury Corn,Corn [3]; Herbicide 6 0.07 kg/Ha,2%
same,% Injury Corn,Corn [3]; Herbicide 6 0.14 kg/Ha,23%
same,% Injury Corn,Corn [3]; [5],65%
same,% Injury Corn,Corn [3]; [6],43%
same,% Injury VELE,VELE (velvetleaf); Herbicide 6 0.07 kg/Ha,33%
same,% Injury VELE,VELE (velvetleaf); Herbicide 6 0.14 kg/Ha,32%
same,% Injury VELE,VELE (velvetleaf); [5],30%
same,% Injury VELE,VELE (velvetleaf); [6],20%
"CCOP(=S)(OCC)OC(Cl)C(Cl)(Cl)Cl (stereo not shown) [Biocide No. 6, O,O-Diethyl-O-1,2,2,2-tetrachloroethyl phosphorothioate, reference compound]",% Inhibition VELE,Velvetleaf (VELE); [7],0%
same,% Inhibition SJCA,SJCA; [7],0%
same,% Inhibition Corn,Corn [1]; [7],0%
"COc1nc(C)nc(NC(=O)NS(=O)(=O)c2ccccc2OCCCl)n1 [Herbicide No. 11, Benzenesulfonamide, 2-(2-chloroethoxy)-N-[[(4-methoxy-6-methyl-1,3,5-triazin-2-yl)amino]carbonyl]-, reference compound]",safening of herbicide/COUNTER 15G corn injury by the antidotes,Corn [2],effectively reduced corn injury
"COC(=O)c1ccccc1S(=O)(=O)NC(=O)Nc1nc(C)cc(C)n1 [Herbicide No. 13, reference compound]",safening of herbicide/COUNTER 15G corn injury by the antidotes,Corn [2],limited to nil
"COc1nc(C)nc(NC(=O)NS(=O)(=O)c2ccccc2Cl)n1 [Herbicide No. 12, Benzenesulfonamide, 2-chloro-N-[[(4-methoxy-6-methyl-1,3,5-triazin-2-yl)amino]carbonyl]-, reference compound]",safening of herbicide/COUNTER 15G corn injury by the antidotes,Corn [2],effectively reduced corn injury
"CCOP(=S)(OCC)Oc1cc(C)nc(C(C)C)n1 [Biocide No. 5, O,O-Diethyl (-(2-isopropyl-4-methyl-6-pyrimidinyl phosphorothioate, reference compound]",% Inhibition VELE,Velvetleaf (VELE); [8],25%
same,% Inhibition SJCA,SJCA; [8],50%
same,% Inhibition Corn,Corn [1]; [8],0%
"CCOC(=O)c1ccccc1S(=O)(=O)NC(=O)Nc1nc(Cl)cc(OC)n1 [Herbicide No. 5, Benzoic acid, 2-[[[[(4-chloro-6-methoxy-2-pyrimidin-2-yl)amino]carbonyl]amino]sulfonyl]ethyl ester]",% Injury Corn,Corn [3]; Herbicide 5 0.07 kg/Ha,88%
same,% Injury Corn,Corn [3]; Herbicide 5 0.14 kg/Ha,92%
same,% Injury Corn,Corn [3]; [9],95%
same,% Injury Corn,Corn [3]; [10],98%
same,% Injury VELE,VELE (velvetleaf); Herbicide 5 0.07 kg/Ha,57%
same,% Injury VELE,VELE (velvetleaf); Herbicide 5 0.14 kg/Ha,77%
same,% Injury VELE,VELE (velvetleaf); [9],83%
same,% Injury VELE,VELE (velvetleaf); [10],70%
"2-Thiophenecarboxylic acid, 3-[[[[(4,6-dimethoxy-1,3,5-triazin-2-yl)amino]carbonyl]amino]sulfonyl]-, methyl ester [Herbicide No. 4]",% Injury Corn,Corn [3]; Herbicide 4 0.07 kg/Ha,15%
same,% Injury Corn,Corn [3]; Herbicide 4 0.14 kg/Ha,38%
same,% Injury Corn,Corn [3]; [11],83%
same,% Injury Corn,Corn [3]; [12],80%
same,% Injury VELE,VELE (velvetleaf); Herbicide 4 0.07 kg/Ha,10%
same,% Injury VELE,VELE (velvetleaf); Herbicide 4 0.14 kg/Ha,52%
same,% Injury VELE,VELE (velvetleaf); [11],55%
same,% Injury VELE,VELE (velvetleaf); [12],5%
